The text below walks through data of patent publication US20070041904A1, “Peptides whose uptake by cells is controllable” (priority 2003, published 2007).

A value given as a limit tells only on which side of the number the result lay.

Test [1] relates to Jurkat cells. As to the kind of experiment: 99mTc-labeled ACPP uptake into Jurkat cells, gamma counting. The test is classed as cell-based, human. The note with it: for increase in cell-associated radioactivity after cleavage: MMP-9 cleaved vs intact. How it is done: ACPPs may be used to deliver radioactive cargo to target cells and tissues. […] Spiked with 0.25 mCi Tc label, 25 nM intact or cleaved substrate. The target Jurkat cells were incubated with the peptides for 30 min at 37° C., and then washed 3 times with HBSS (HEPES-buffered saline solution) at room temperature (RT). 20 hours later, cells were counted by Gamma counter.
Spiked (4%) with 60 μCi ^99mTc-labeled peptide, the target Jurkat cells were loaded with 2 μM intact or MMP-9-cleaved peptide at 37° C. for 30 min. Then, the cells were washed with RT HBSS 3 times, and counted (Gamma counter) 20 hours later.
The use of ACPP labeled with technetium-99m (^99mTc) as described in Example 19 can be extended for use as an imaging agent for mouse models of cancer. One obvious advantage of gamma scintigraphy as compared to fluorescent imaging is that gamma imaging reaches much deeper into tissue. As described above, various carrier-conjugated ACPPs that incorporate N-epsilon-bis(2-pyridylmethyl)lysine (DPK), a high-affinity chelator for technetium tricarbonyl, Tc(CO)3, have been prepared. […] The simplest of these compounds, (11 KDa-mPEG)-e9-XPLGLAG-r9-[DPK-^99mTc(CO)3] was first tested on isolated cultured cells. (Note: X denotes a 6-aminohexanoyl spacer, and lower case letters denote D-amino acids.) Before cleavage, the uptake of this CPP into Jurkat lymphocytes was only 1.9% of the positive control CPP, r9-[DPK-^99mTc(CO)3].

The subject of test [2] is Jurkat cells. As to the kind of experiment: Gd-labeled ACPP uptake into Jurkat cells, ICP-MS. Type of test: cell-based, human. How it is done: Gadolinium chloride (GdCl3) is used to add gadolinium (Gd) to provide a contrast-enhancing, PEGylated ACPP mPEG-S—CH2CONH-e9-ahx-PLGLAG-r9-K[DOTA(Gd)]-CONH2 (SEQ ID NO: 75). It will be understood that in other embodiments the ACPP need not include a PEG moiety, and may include other moieties as well. […] Jurkat cells were incubated with 8 μM of the intact or of the cleaved substrate at 37° C. for 30 min; then the cells were washed four times with RT HBSS. Gd concentration was determined by ICP-MS (inductively coupled plasma mass spectroscopy). Cleavage led to a 19-fold increase in uptake by target cells.
Three ACPPs carrying Gd^3+ were synthesized: (11-KDa-mPEG)-e9-XPLGLAG-r9-K(DOTA-Gd), Suc9-(70 KDa dextran)-e9-XPLGLAG-r9-K(DOTA-Gd), and Suc9-(70 KDa dextran)-e9-XPLGLAX-r9-K(DOTA-Gd). The first of these ACCPs was tested at 8 μM on isolated Jurkat lymphocytes. Gd^3+ uptake was measured by inductively coupled plasma mass spectroscopy. […] Thus, MMP-mediated cleavage of the test peptide increased uptake by a factor of 19-fold […].

A short description of test [3]: Phage display selection, all screens. How it is done:
(§1) In-vivo selections were performed by injection of phage libraries into mice either containing tumor xenografts (HT1080 cells) or mammary tumors in transgenic mice (MMTV-PyMT). Tumor tissues were removed 3-24 hrs after injection. The rescued phage were re-amplified in bacteria and reinjected into another mouse for up to 7 iterative cycles of selection. Representative phage were isolated at each round and sequenced to monitor the selection process.
(§2) In-vitro selection strategies involved screening for phage that are specifically cleaved by purified enzymes or tissue extracts associated with tumor tissue while also selecting against cleavage by enzymes and extracts associated with normal tissue. […] The inventors have employed two different in-vitro selection paradigms. In the initial selection, the 2.5×10^6 diversity M13 library was treated with the kidney proteases meprin and neprilysin for 3 hours. Ni-NTA agarose (Qiagen) was then added and allowed to bind to the phage for 5-15 minutes, then the Ni-NTA agarose carrying the phage was resuspended with MMP-9 and incubated at 37 for 2-3 hours. After removing the beads by centrifugation, phage released into the supernatant were plated with fresh bacteria. This procedure selects for phage that remain uncleaved by kidney proteases but are then released by MMP-9. This procedure was repeated for as many as six rounds with representative phage being isolated and sequenced to monitor the selection process. The same selection procedure was also performed with liver/kidney extract instead of meprin/neprilysin and tumor extract instead of MMP-9. The resulting sequences are tabulated below. The most promising peptides were chemically resynthesized with flanking e9 and r9 sequences and a C-terminal fluorescein tag. They were then assayed by tricine gel electrophoresis for cleavage by tumor, liver, kidney extracts and MMP-9.

Test [4] has as its system neprilysin / meprin / MMP-9. Kind of test: In-vitro phage selection, Nep/Mep/MMP-9. The protocol: as §2
Test [5] has as its system furin. As to the kind of experiment: Furin inhibition assay. Type of test: biochemical. How it is done:
The furin assay was performed with Boc-Arg-Val-Arg-Arg-MCA substrate (Bachem) at a final concentration of 200 μM in 100 μl of 100 mM MES/NaOH, pH 7.0, containing 1 mM CaCl2. Inhibitory peptides were pre-incubated with 1 unit furin enzyme (NEB) for 30 min prior to addition of substrate. Assays were performed in triplicate by incubation at 37° C. for 4 hours in a 96-well clear-bottom black-wall Costar plate. Release of MCA was measured by excitation at 380 nm and emission at 460 nm. IC50's were determined as the concentration of inhibitor required to inhibit 50% of the emission increase at 460 nm over the no-enzyme control. […]

The nature of test [6]: In-vitro phage selection, liver/kidney/tumor extracts. The protocol:
as §2

Test [7] has as its system MMP-2. As to the kind of experiment: Cleavage kinetics for MMP-2 cleavage. Type of test: biochemical. The source says:
Cleavage kinetics for MMP-2 cleavage of H2N-e6-XPLGLAG-r9-Xc(Cy5)-CONH2 (where X≡aminohexanoic acid) are illustrated in FIG. 27.
Cleavage of a MMP-2 substrate ACPP is illustrated in FIG. 27.

Test [8] relates to HT1080 tumor xenografts or mammary tumors (MMTV-PyMT). As to the kind of experiment: In-vivo phage selection. Set-up: species or system mice. The conditions noted are these: mouse. How it is done: as §1
Test [9] relates to HT-1080 tumors. As to the kind of experiment: In vivo fluorescence imaging of HT-1080 tumor xenografts. Set-up: species or system nude mice. The note with it: mean±SE.
Procedure: Xenografts in Mice. Nude mice (age, 4-6 weeks) were injected s.c. with ≈10^6 HT-1080 cells. […] Animals were then imaged at various times by using a Nikon f/1.2 camera lens in front of a cooled charge-coupled device camera (SenSys, Photometrics, Tucson, Ariz.). For longer lasting imaging studies, animals were allowed to wake up after 2 h of anesthesia and were reanesthetized at ≈4 and 6 hr for further data collection. […] After imaging was ended, animals were killed with halothane, and organs of interest were harvested and weighed. […] Cy5 fluorescence was imaged as described above.
We next tested whether ACPPs could light up protease expressing human tumor xenografts in whole mice. We chose HT-1080 tumors in the axilla of nude mice because these tumors express both MMP-2 and MMP-9 and have been used to test other MMP-2 cleavable contrast agents (22, 26). […] Anesthetized mice were injected through the tail vein with either an MMP-2 cleavable ACPP, an isomeric scrambled version verified not to be a substrate for MMP-2 or MMP-9, or an all-D-amino acid version. […] To quantitate the results, we measured the contrast index defined as (fluorescence intensity of tumor−autofluorescence)/(fluorescence of normal contralateral region−autofluorescence).

What is called IC50 is the concentration that inhibits the measured activity by half. Low readings indicate greater potency in that assay, high ones weaker potency in that assay. As usually defined, the Km is the substrate concentration at which the rate is half of its maximum. As usually defined, the kcat is the number of substrate molecules converted per active site and unit of time at saturation.

Sequence of furin (P09958 108-576 limits assumed): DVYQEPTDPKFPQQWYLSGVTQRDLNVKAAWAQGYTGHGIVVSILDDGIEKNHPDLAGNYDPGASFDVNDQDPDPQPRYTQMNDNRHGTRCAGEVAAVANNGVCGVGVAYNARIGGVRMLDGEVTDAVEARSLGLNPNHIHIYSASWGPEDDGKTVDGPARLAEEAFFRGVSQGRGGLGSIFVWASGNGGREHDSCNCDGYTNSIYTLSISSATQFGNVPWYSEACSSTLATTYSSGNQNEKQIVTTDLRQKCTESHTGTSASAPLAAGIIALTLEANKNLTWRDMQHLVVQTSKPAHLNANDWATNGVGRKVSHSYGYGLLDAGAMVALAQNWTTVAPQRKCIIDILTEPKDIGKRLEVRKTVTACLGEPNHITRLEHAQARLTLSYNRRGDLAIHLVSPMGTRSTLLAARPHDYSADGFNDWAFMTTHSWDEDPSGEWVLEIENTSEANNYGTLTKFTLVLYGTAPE

As to “(11 KDa-mPEG)-e9-XPLGLAG-r9-[DPK-^99mTc(CO)3]”, the “increase in cell-associated radioactivity after cleavage” value in test [1] was 57 -fold. Also, the “uptake after cleavage, % of positive control” value in test [1] (after MMP-9) was 107%. In addition, in test [1] (positive control r9-[DPK-99mTc(CO)3]), the “uptake before cleavage, % of positive control CPP” value is 1.9%.
Consider (11-KDa-mPEG)-e9-XPLGLAG-r9-K(DOTA-Gd), for which the “increase in Gd uptake after cleavage” value in test [2] (8 μM) was 19 -fold. Besides, in test [2] (8 μM, ICP-MS), the “Gd3+ uptake, MMP-9-cleaved peptide” value was found to be 737 µM and the “Gd3+ uptake, intact peptide” value was found to be 39 µM.
In the case of ARKRSQ, in [3], the “Total # times isolated” value was found to be 2. In addition, in [4], the “# times identified in Nep/Mep/MMP-9 screen” value came to 2.
In the case of Ac-r9-k-NH2 [reference compound], the half-inhibitory concentration (IC50) in test [5] (intact / uncleaved peptide) was found to be 3.4 µM.
For the substance DSNAES, the “# times identified in liver/kidney/tumor screen” value in [6] was 1. Also, in test [3], the “Total # times isolated” value came out at 4. Further, in test [4], the “# times identified in Nep/Mep/MMP-9 screen” value came to 3.
Consider DVGTTE, for which the “Total # times isolated” value in test [3] was 5. Further, the “# times identified in Nep/Mep/MMP-9 screen” value in test [4] is 5.
With FMEIET, the “Total # times isolated” value in [3] was found to be 3. Further, the “# times identified in Nep/Mep/MMP-9 screen” value in test [4] was 3.
In the case of GGHTRQ, in test [3], the “Total # times isolated” value is recorded as 2. In addition, the “# times identified in Nep/Mep/MMP-9 screen” value in test [4] was 2.
For the substance GLWQGP, in [6], the “# times identified in liver/kidney/tumor screen” value was found to be 7. Further, the “Total # times isolated” value in test [3] is given as 7.
Take GMMYRS: the “# times identified in liver/kidney/tumor screen” value in test [6] is 3. Further, the “Total # times isolated” value in [3] was determined as 4. In addition, the “# times identified in Nep/Mep/MMP-9 screen” value in [4] came out at 1.
In the case of H2N-e6-XPLGLAG-r9-Xc(Cy5)-CONH2, in [7], the Michaelis-Menten constant (Km) is 534 µM, the catalytic constant (kcat) turned out to be 15.0 s⁻¹ and the kcat/Km was 28,037 M^−1s^−1.
On to HEVVAG, for which the “Total # times isolated” value in [3] is 2. The “# times identified in Nep/Mep/MMP-9 screen” value in test [4] was 2.
On to IDKQLE, for which, in [3], the “Total # times isolated” value is listed as 3. Moreover, in [4], the “# times identified in Nep/Mep/MMP-9 screen” value is 3.
With INGKVT, the “Total # times isolated” value in test [3] came to 2. In test [4], the “# times identified in Nep/Mep/MMP-9 screen” value was 2.
Consider ITDMAA, for which, in [6], the “# times identified in liver/kidney/tumor screen” value was found to be 3. For the same substance, the “Total # times isolated” value in test [3] was determined as 4. Besides, the “# times identified in in-vivo screen” value in test [8] came to 1.
With LPGMMG, the “# times identified in liver/kidney/tumor screen” value in test [6] came to 5. Moreover, in test [3], the “Total # times isolated” value amounted to 5.
Turning to QCTGRF, the “# times identified in liver/kidney/tumor screen” value in [6] stood at 4. Besides, the “Total # times isolated” value in test [3] was found to be 6. For the same substance, the “# times identified in in-vivo screen” value in test [8] was found to be 1. In addition, in test [4], the “# times identified in Nep/Mep/MMP-9 screen” value was found to be 1.
On to RLQLKL, for which the “# times identified in liver/kidney/tumor screen” value in test [6] is on record as 11. Also, the “Total # times isolated” value in test [3] came out at 12. For the same substance, the “# times identified in in-vivo screen” value in test [8] turned out to be 1.
Regarding RWRTNF, the “Total # times isolated” value in test [3] is recorded as 4. For the same substance, in test [4], the “# times identified in Nep/Mep/MMP-9 screen” value worked out at 4.
TDLGAM: the “# times identified in liver/kidney/tumor screen” value in test [6] is recorded as 5. Further, the “Total # times isolated” value in [3] was 5.
On to TSAVRT, for which, in test [3], the “Total # times isolated” value worked out at 2. Also, the “# times identified in in-vivo screen” value in [8] was 2.
WRNTIA: the “Total # times isolated” value in [3] was determined as 3. Also, in test [4], the “# times identified in Nep/Mep/MMP-9 screen” value was 3.
With WRPCES, in test [3], the “Total # times isolated” value worked out at 3. Besides, the “# times identified in in-vivo screen” value in test [8] worked out at 1. In addition, the “# times identified in Nep/Mep/MMP-9 screen” value in test [4] was determined as 2.
Consider “[11 kDa PEG]-X-e9-XPLG*LAG-r9 [cleavable ACPP]”, for which, in [9], the “contrast index (tumor−autofluorescence)/(normal contralateral−autofluorescence)” value is given as 2.1±0.17.
In the case of “[11 kDaPEG]-X-e9-XLALGPG-r9 [scrambled isomer]”, the “contrast index (tumor−autofluorescence)/(normal contralateral−autofluorescence)” value in test [9] is 1.3±0.16.
Same read-out and setting: the same measure for “[11-kDa PEG]-X-e9-Xplglag-r9-Xk(Cy5) [all-D-amino acid control]”: 1.5±0.11.
For “decanoyl-RVKR-chloromethylketone [reference compound]”, half-maximal inhibition in test [5] (control inhibitor) (IC50) required 0.027 µM.
Turning to e9-XPLGLAG-r9-Xk-NH2, 27 µM corresponded to half-maximal inhibition in test [5] (intact / uncleaved peptide) (IC50).
Turning to “mPEG(11 kd)-S—CH2—CONH-ahx-e9-ahx-PLGLAG-r9-ahx-k-CONH2”, the “increase in cell-associated radioactivity after cleavage” value in test [1] is recorded as 38 -fold.
Turning to mPEG(11kd)-e9-XPLGLAG-r9-Xk-NH2, the IC50 in [5] (intact / uncleaved peptide) was over 50 µM.
“mPEG-S—CH2CONH-e9-ahx-PLGLAG-r9-K[DOTA(Gd)]-CONH2”: in [2] (8 μM), the “increase in Gd uptake after cleavage” value is listed as 19 -fold.
Regarding r9-K(DOTA-Gd) [reference compound], the “Gd3+ uptake, positive control CPP” value in [2] (ICP-MS) came out at 504 µM.
